Assay type in all cases: functional
In experiment [1] the test system is Rattus norvegicus. Nature of the experiment: Anti-inflammatory activity inRattus norvegicus albino (rat) assessed as reduction of carrageenan-induced paw edema at 10 mg/kg, po administered 1 hr prior challenge measured after 4 hr post challenge by plethismometer. On the set-up: scale not given: the % may be the effect or the level left. In general terms: In the carrageenan paw model, swelling and tenderness develop within hours.

The test system of another experiment is Mus musculus. Kind of experiment: Analgesic activity in Mus musculus (mouse) assessed as protection against acetic acid-induced writhing at 10 mg/kg, po administered 30 min prior challenge measured for 20 min. Background: Writhing tests count abdominal constrictions after an irritant is injected.
The test system of experiment [2] is Rattus norvegicus. Kind of experiment: Anti-inflammatory activity inRattus norvegicus albino (rat) assessed as reduction of carrageenan-induced paw edema at 10 mg/kg, po administered 1 hr prior challenge measured after 2 hr post challenge by plethismometer. On the set-up: scale not given: the % may be the effect or the level left.

For `O=C(NN1C(=O)/C(=C/c2cccc(Br)c2)SC1c1ccc(F)cc1)c1ccc(-c2ccccc2)cc1` (configuration not stated), the figures for the Activity in the experiment on Rattus norvegicus [1], with Mus musculus and in the experiment on Rattus norvegicus [2] were 52.08%, 37.5% and 41.76%, respectively.
In the case of `COc1ccc(/C=C2\SC(c3ccc(OC)cc3)N(NC(=O)c3ccc(-c4ccccc4)cc3)C2=O)cc1` (configuration not stated), the Activity turned out to be 70.28% with Rattus norvegicus [1], 40.43% with Mus musculus and 49.54% with Rattus norvegicus [2].
Taken in the same sequence, the figures for `COc1ccc(/C=C2\SC(c3cccc([N+](=O)[O-])c3)N(NC(=O)c3ccc(-c4ccccc4)cc3)C2=O)cc1` (configuration not stated) were 48.92%, 37.93% and 37.78%.
Taken in the same sequence, the figures for `O=C(NN1C(=O)/C(=C/c2ccc(Cl)cc2)SC1c1ccc(F)cc1)c1ccc(-c2ccccc2)cc1` (configuration not stated) were 52.92%, 46.25% and 43.64%.
Taken in the same sequence, the figures for `O=C(NN1C(=O)/C(=C/c2cccc(Br)c2)SC1c1ccc(Cl)cc1)c1ccc(-c2ccccc2)cc1` (configuration not stated) were 54.8%, 17.93% and 44.56%.
For the molecule `COc1ccc(/C=C2\SC(c3ccc(Cl)cc3)N(NC(=O)c3ccc(-c4ccccc4)cc3)C2=O)cc1` (configuration not stated), the Activity in the experiment with Rattus norvegicus [1] is given as 53.87%; with Mus musculus it was 29.6%; in the experiment with Rattus norvegicus [2], 45.83%.
The matching figures for `O=C(NN1C(=O)/C(=C/c2ccccc2)SC1c1ccc(Cl)cc1)c1ccc(-c2ccccc2)cc1` (configuration not stated): 55.11%, 20.43% and 48.92%.
On to `O=C(NN1C(=O)/C(=C/c2ccc(Cl)cc2)SC1c1ccc(Cl)cc1)c1ccc(-c2ccccc2)cc1` (configuration not stated), for which the Activity with Rattus norvegicus [1] is 55.34%; in the experiment with Mus musculus it was 22.93%; with Rattus norvegicus [2] it was 46.14%.
Consider `COc1ccc(C2S/C(=C\c3ccc(Cl)cc3)C(=O)N2NC(=O)c2ccc(-c3ccccc3)cc2)cc1` (configuration not stated), for which the Activity is on record as 71.83% in the experiment with Rattus norvegicus [1], 32.1% in the experiment with Mus musculus and 57.9% with Rattus norvegicus [2].
The matching figures for `COc1ccc(C2S/C(=C\c3cccc(Br)c3)C(=O)N2NC(=O)c2ccc(-c3ccccc3)cc2)cc1` (configuration not stated): 69.05%, 33.35% and 46.75%.
As for `COc1ccc(/C=C2\SC(c3ccc(F)cc3)N(NC(=O)c3ccc(-c4ccccc4)cc3)C2=O)cc1` (configuration not stated), the Activity was determined as 53.62% in the experiment with Rattus norvegicus [1], 37.93% in the experiment on Mus musculus and 45.82% in the experiment with Rattus norvegicus [2].
The matching figures for `O=C(NN1C(=O)/C(=C/c2ccc(Cl)cc2)SC1c1cccc([N+](=O)[O-])c1)c1ccc(-c2ccccc2)cc1` (configuration not stated): 49.23%, 46.25% and 39.94%.
Taken in the same sequence, the figures for `O=C(NN1C(=O)/C(=C/c2ccccc2)SC1c1cccc([N+](=O)[O-])c1)c1ccc(-c2ccccc2)cc1` (configuration not stated) were 47.99%, 40.85% and 38.09%.
The matching figures for `COc1ccc(C2S/C(=C\c3cccc([N+](=O)[O-])c3)C(=O)N2NC(=O)c2ccc(-c3ccccc3)cc2)cc1` (configuration not stated): 71.21%, 36.25% and 47.68%.
Take `COc1ccc(C2S/C(=C\c3ccccc3)C(=O)N2NC(=O)c2ccc(-c3ccccc3)cc2)cc1` (configuration not stated): the values for the Activity with Rattus norvegicus [1], with Mus musculus and in the experiment with Rattus norvegicus [2] were 68.74%, 38.35% and 45.83%, respectively.
The matching figures for `O=C(NN1C(=O)/C(=C/c2cccc(Br)c2)SC1c1cccc([N+](=O)[O-])c1)c1ccc(-c2ccccc2)cc1` (configuration not stated): 50.78%, 37.5% and 38.7%.
Taken in the same sequence, the figures for `O=C([O-])Cc1ccccc1Nc1c(Cl)cccc1Cl.[Na+]` [DICLOFENAC SODIUM] were 79.26%, 68.5% and 54.18%.
The matching figures for `O=C(NN1C(=O)/C(=C/c2cccc([N+](=O)[O-])c2)SC1c1cccc([N+](=O)[O-])c1)c1ccc(-c2ccccc2)cc1` (configuration not stated): 51.37%, 43.35% and 39.63%.
Take `O=C(NN1C(=O)/C(=C/c2cccc([N+](=O)[O-])c2)SC1c1ccc(Cl)cc1)c1ccc(-c2ccccc2)cc1` (configuration not stated): the Activity is recorded as 56.35% in the experiment on Rattus norvegicus [1], 27.5% in the experiment on Mus musculus and 45.21% in the experiment with Rattus norvegicus [2].

(Values after ChEMBL document CHEMBL3045537, “Synthesis of 2-(aryl)-5-(arylidene)-4-thiazolidinone derivatives with potential analgesic and anti-inflammatory activity” (2012).)
